The target of one experiment is T1, hSOS1 and hKRASG12C (Homo sapiens, UniProt Q07889).
T1 sequence (Q07889 564-1049): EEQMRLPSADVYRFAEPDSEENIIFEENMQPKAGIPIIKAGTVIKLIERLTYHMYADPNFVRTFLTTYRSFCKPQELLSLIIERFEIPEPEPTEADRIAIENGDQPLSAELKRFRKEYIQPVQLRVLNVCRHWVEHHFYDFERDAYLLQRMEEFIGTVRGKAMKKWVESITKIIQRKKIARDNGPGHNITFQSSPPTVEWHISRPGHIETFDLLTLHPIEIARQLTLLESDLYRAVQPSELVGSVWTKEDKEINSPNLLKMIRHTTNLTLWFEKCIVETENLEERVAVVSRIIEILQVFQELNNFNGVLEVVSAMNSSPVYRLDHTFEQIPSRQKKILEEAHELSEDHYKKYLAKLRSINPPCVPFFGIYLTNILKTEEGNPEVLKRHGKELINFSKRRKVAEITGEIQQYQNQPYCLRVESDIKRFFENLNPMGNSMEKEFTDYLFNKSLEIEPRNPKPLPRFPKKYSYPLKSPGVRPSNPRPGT
As to the kind of experiment: biochemical.

A further experiment has as its system pERK in DLD1 cells. As to the kind of experiment: ERK phosphorylation assay after EGF stimulation. It is filed as cell-based. To be noted: Homo sapiens, DLD-1, compound 2 h, 200 ng/ml hEGF 5 minutes, alphascreen pERK, read-out: ERK phosphorylation inhibition IC50. How it is done: Example-128: ERK Phosphorylation Assay Protocol
Compounds were tested for their ability to inhibit pERK after EGF stimulation in DLD1 cells. Cells were seeded at 0.2 million cells per well in 96 well cell binding tissue culture plate in 100 μL complete media and were allowed to settle overnight (16 to 20 h). On the following day, cells were treated with various concentrations of test compounds for 2 h followed by stimulation with 200 ng/ml hEGF (diluted in PBS) for 5 minutes. Cells were then washed once with PBS and lysed in freshly prepared lysis buffer (provided with alphascreen surefire ERK1/2 p-T202/Y204 assay kit, cat no: TGRESB10K, Perkin Elmer). Lysis was carried out in plate shaker for 10-15 mins. Lysate was transferred to […] white opti-plate (Perkin Elmer) and alphascreen for pERK was carried out as per manufacturer's instructions. Plate was read after 2 h incubation in plate shaker at […] 300 RPM, 25-28° C.
For orientation: Bead proximity is the source of the signal in Alpha formats.

The target of experiment [1] is T2, hSOS1 mediated nucleotide exchange on hKRASG12C (Homo sapiens, UniProt Q07889).
T2 sequence (Q07889 564-1049): T1 sequence (Q07889 564-1049)
The experiment can be described thus: biochemical.

Each structure is given as a SMILES string.

Protocol for hSOS1 and hKRASG12C: Interaction assay was conducted to evaluate the ability of the compounds to disrupt the protein-protein interactions between hSOS1 and hKRASG12C. Inhibitory effect of compounds on GST-hSOS1, 564-1049aa expressed and purified in-house and HIS-hKRASG12C (R06-32DH, SignalChem) interaction was assessed using HTRF detection technology in biochemical assay. Compounds were pre-incubated with 10-50 nM working solution of hSOS1 per well of a 384 well plate (Perkin Elmer, Cat #6007290) for 10 min at 20° C. in the assay buffer containing 5 mM HEPES, pH 7.4, 150 mM NaCl, 10 mM EDTA, 1 mM DTT, 0.05% BSA fraction V and 0.0025% Igepal. Reaction was initiated by adding 100-300 nM working solution of hKRASG12C in assay buffer. Total assay volume was 15 μL. Reaction was continued for 30-60 min at 20° C. Then detection solution containing MAb Anti-GST-d2 (#61GSTDLA, Cisbio BioAssays) and MAb Anti-HIS-Tb (#61HISTLA, Cisbio BioAssays), all prepared in HTRF detection buffer (#61DB10RDF, Cisbio BioAssays) was added and further incubated for 30-60 min at 20° C. HTRF signal was recorded in PHERAStar microplate reader. Ratio of signal obtained at 665 nm and 620 nm was used to compute the percent inhibition of compound utilizing the following formula:
Positive control=hSOS1+hKRASG12C+MAb Anti-GST-d2+Mab Anti-HIS-Tb Negative control=hKRASG12C+MAb Anti-GST-d2+MAb Anti-HIS-Tb

What is called IC50 is the concentration that gives 50% inhibition. `Cc1nc(N[C@H](C)c2cc(N)cc(C(F)(F)F)c2)c2cc(N[C@H]3CCOC3)c3c(c2n1)CCC3` [Compound 19, N^4—((R)-1-(3-amino-5-(trifluoromethyl)phenyl)ethyl)-2-methyl-N^6—((S)-tetrahydrofuran-3-yl)-8,9-dihydro-7H-cyclopenta[h]quinazoline-4,6-diamine]: the IC50 on hSOS1 and hKRASG12C is 1 to 10 nM; in the experiment with pERK in DLD1 cells, 1 to 200 nM.
For `Cc1nc(N[C@H](C)c2cc(N)cc(C(F)(F)F)c2)c2cc(N3CC[C@@H](O)C3)c3c(c2n1)CCC3` [Compound 44, (R)-1-(4-(((R)-1-(3-amino-5-(trifluoromethyl)phenyl)ethyl)amino)-2-methyl-8,9-dihydro-7H-cyclopenta[h]quinazolin-6-yl)pyrrolidin-3-ol], the IC50 at hSOS1 and hKRASG12C fell in the range of 11 to 20 nM; in the experiment on pERK in DLD1 cells, 1 to 200 nM.
Consider `COCC1CCN(c2cc3c(N[C@H](C)c4cccc(C(F)(F)C(C)(C)O)c4F)nc(C)nc3c3c2CCC3)CC1` [Compound 57, (R)-1,1-difluoro-1-(2-fluoro-3-(1-((6-(4-(methoxymethyl)piperidin-1-yl)-2-methyl-8,9-dihydro-7H-cyclopenta[h]quinazolin-4-yl)amino)ethyl)phenyl)-2-methylpropan-2-ol], for which the concentration for half-maximal inhibition (IC50) was in the range of 1 to 10 nM against hSOS1 and hKRASG12C; 1 to 30 nM in experiment [1]; 1 to 200 nM with pERK in DLD1 cells.
For `Cc1nc(N[C@H](C)c2cccc(C(F)(F)CO)c2F)c2cc(N3CC4(COC4)C3)c3c(c2n1)CCC3` [Compound 23, (R)-2,2-difluoro-2-(2-fluoro-3-(1-((2-methyl-6-(2-oxa-6-azaspiro[3.3]heptan-6-yl)-8,9-dihydro-7H-cyclopenta[h]quinazolin-4-yl)amino)ethyl)phenyl)ethan-1-ol], the IC50 lay in the range of 1 to 10 nM at hSOS1 and hKRASG12C; 1 to 30 nM in experiment [1]; 1 to 200 nM in the experiment on pERK in DLD1 cells.
Take `Cc1nc(N[C@H](C)c2cccc(C(F)(F)C(C)(C)O)c2F)c2cc(N3C[C@@H]4[C@@H](CO)[C@@H]4C3)c3c(c2n1)CCC3` [Compound 58, 1,1-difluoro-1-(2-fluoro-3-((R)-1-((6-((1R,5S,6R)-6-(hydroxymethyl)-3-azabicyclo[3.1.0]hexan-3-yl)-2-methyl-8,9-dihydro-7H-cyclopenta[h]quinazolin-4-yl)amino)ethyl)phenyl)-2-methylpropan-2-ol]: the IC50 against hSOS1 and hKRASG12C was 1 to 10 nM; in experiment [1] it was 1 to 30 nM; in the experiment on pERK in DLD1 cells it was 1 to 200 nM.
Take `Cc1nc(N[C@H](C)c2cc(N)cc(C(F)(F)F)c2)c2cc(N3CCC(CO)CC3)c3c(c2n1)CCC3` [Compound 49, (R)-(1-(4-((1-(3-amino-5-(trifluoromethyl)phenyl)ethyl)amino)-2-methyl-8,9-dihydro-7H-cyclopenta[h]quinazolin-6-yl)piperidin-4-yl)methanol]: the IC50 lay within 1 to 10 nM at hSOS1 and hKRASG12C; 1 to 30 nM in experiment [1]; 1 to 200 nM with pERK in DLD1 cells.
In the case of `COCC1(O)CCN(c2cc3c(N[C@H](C)c4cccc(C(F)(F)C(C)O)c4F)nc(C)nc3c3c2CCC3)CC1` (single isomer, unassigned) [Compound 72a], the IC50 fell in the range of 1 to 10 nM at hSOS1 and hKRASG12C; 1 to 30 nM in experiment [1]; 1 to 200 nM with pERK in DLD1 cells.
As to `Cc1nc(N[C@H](C)c2cc(N)cc(C(F)(F)F)c2)c2cc(NC3COC3)c3c(c2n1)CCC3` [Compound 28, (R)—N^4-(1-(3-amino-5-(trifluoromethyl)phenyl)ethyl)-2-methyl-N^6-(oxetan-3-yl)-8,9-dihydro-7H-cyclopenta[h]quinazoline-4,6-diamine], the IC50 on hSOS1 and hKRASG12C lay within 1 to 10 nM; in experiment [1], 31 to 70 nM.
In the case of `Cc1nc(N[C@H](C)c2cc(N)cc(C(F)(F)F)c2)c2cc(O[C@H]3CCOC3)c3c(c2n1)CCC3` [Compound 109, N—((R)-1-(3-amino-5-(trifluoromethyl)phenyl)ethyl)-2-methyl-6-(((S)-tetrahydrofuran-3-yl)oxy)-8,9-dihydro-7H-cyclopenta[h]quinazolin-4-amine], the IC50 against hSOS1 and hKRASG12C fell in the range of 11 to 20 nM; with pERK in DLD1 cells it was 201 to 500 nM.
Compound `Cc1nc(N[C@H](C)c2cc(N)cc(C(F)(F)F)c2)c2cc(N3CCN(C)CC3)c3c(c2n1)CCC3` [Compound 46, (R)—N-(1-(3-amino-5-(trifluoromethyl)phenyl)ethyl)-2-methyl-6-(4-methylpiperazin-1-yl)-8,9-dihydro-7H-cyclopenta[h]quinazolin-4-amine] came in with a half-maximal inhibitory concentration (IC50) against hSOS1 and hKRASG12C of 1 to 10 nM.
`Cc1cc(N)cc(C(C)Nc2nc(C)nc3c4c(c(N5CC6(COC6)C5)cc23)CCC4)c1` (single isomer, unassigned) [Compound 20, N-(1-(3-amino-5-methylphenyl)ethyl)-2-methyl-6-(2-oxa-6-azaspiro[3.3]heptan-6-yl)-8,9-dihydro-7H-cyclopenta[h]quinazolin-4-amine]: the concentration for half-maximal inhibition (IC50) on hSOS1 and hKRASG12C is 1 to 10 nM; with pERK in DLD1 cells it was 201 to 500 nM.
On to `Cc1nc(N[C@H](C)c2cc(N)cc(C(F)(F)F)c2)c2cc(NC3CCOCC3)c3c(c2n1)CCC3` [Compound 21, (R)—N^4-(1-(3-amino-5-(trifluoromethyl)phenyl)ethyl)-2-methyl-N^6-(tetrahydro-2H-pyran-4-yl)-8,9-dihydro-7H-cyclopenta[h]quinazoline-4,6-diamine], for which the IC50 against hSOS1 and hKRASG12C was 11 to 20 nM; with pERK in DLD1 cells it was 201 to 500 nM.
Regarding `COC1CCN(c2cc3c(N[C@H](C)c4cc(N)cc(C(F)(F)F)c4)nc(C)nc3c3c2CCC3)CC1` [Compound 1, (R)—N-(1-(3-amino-5-(trifluoromethyl)phenyl)ethyl)-6-(4-methoxypiperidin-1-yl)-2-methyl-8,9-dihydro-7H-cyclopenta[h]quinazolin-4-amine], the IC50 lay in the range of 11 to 20 nM at hSOS1 and hKRASG12C; 1 to 200 nM in the experiment with pERK in DLD1 cells.
Turning to `Cc1nc(N[C@H](C)c2cc(N)cc(C(F)(F)F)c2)c2cc(N3C[C@@H](C)O[C@@H](C)C3)c3c(c2n1)CCC3` [Compound 17, N—((R)-1-(3-amino-5-(trifluoromethyl)phenyl)ethyl)-6-((2S,6R)-2,6-dimethylmorpholino)-2-methyl-8,9-dihydro-7H-cyclopenta[h]quinazolin-4-amine], at hSOS1 and hKRASG12C, the IC50 lay in the range of 11 to 20 nM.
As to `COc1cc2c(N[C@H](C)c3cc(N)cc(C(F)(F)F)c3)nc(C)nc2c2c1CCC2` [Compound 108, (R)—N-(1-(3-amino-5-(trifluoromethyl)phenyl)ethyl)-6-methoxy-2-methyl-8,9-dihydro-7H-cyclopenta[h]quinazolin-4-amine], at hSOS1 and hKRASG12C, the IC50 lay in the range of 1 to 10 nM.
Take `Cc1nc(NC(C)c2cc(N)cc(C(F)F)c2)c2cc(N3CCOCC3)c3c(c2n1)CCC3` (single isomer, unassigned) [Compound 77, (R/S)—N-(1-(3-amino-5-(difluoromethyl)phenyl)ethyl)-2-methyl-6-morpholino-8,9-dihydro-7H-cyclopenta[h]quinazolin-4-amine]: the IC50 lay in the range of 1 to 10 nM against hSOS1 and hKRASG12C; 1 to 200 nM in the experiment on pERK in DLD1 cells.
As for `Cc1nc(N[C@H](C)c2cc(N)cc(C(F)(F)F)c2)c2cc(N3CCOCC3)c3c(c2n1)CC(C)O3` (single isomer, unassigned) [Compound 117b], the concentration for half-maximal inhibition (IC50) against hSOS1 and hKRASG12C was 11 to 20 nM; in the experiment with pERK in DLD1 cells, 1 to 200 nM.
For `Cc1nc(N[C@H](C)c2cc(N)cc(C(F)(F)F)c2)c2cc(O[C@H]3CCOC3)c3c(c2n1)CC(C)(C)O3` [Compound 112, N—((R)-1-(3-amino-5-(trifluoromethyl)phenyl)ethyl)-2,8,8-trimethyl-6-(((S)-tetrahydrofuran-3-yl)oxy)-8,9-dihydrofuro[2,3-h]quinazolin-4-amine], the IC50 fell in the range of 11 to 20 nM at hSOS1 and hKRASG12C; 1 to 200 nM in the experiment on pERK in DLD1 cells.
On to `Cc1nc(N[C@H](C)c2cc(N)cc(C(F)(F)F)c2)c2cc(C3CCN(C)CC3)c3c(c2n1)CCC3` [Compound 101, (R)—N-(1-(3-amino-5-(trifluoromethyl)phenyl)ethyl)-2-methyl-6-(1-methylpiperidin-4-yl)-8,9-dihydro-7H-cyclopenta[h]quinazolin-4-amine], for which the IC50 against hSOS1 and hKRASG12C lay within 1 to 10 nM; with pERK in DLD1 cells, 1 to 200 nM.
On to `Cc1nc(N[C@H](C)c2cc(N)cc(C(F)(F)F)c2)c2cc(O[C@H]3CCOC3)c3oc(C)cc3c2n1` [Compound 111], for which the IC50 at hSOS1 and hKRASG12C was in the range of 11 to 20 nM; with pERK in DLD1 cells, 201 to 500 nM.
As for `COC[C@H]1CN(c2cc3c(N[C@H](C)c4cc(N)cc(C(F)(F)F)c4)nc(C)nc3c3c2CCC3)CCO1` [Compound 27, N—((R)-1-(3-amino-5-(trifluoromethyl)phenyl)ethyl)-6-((R)-2-(methoxymethyl)morpholino)-2-methyl-8,9-dihydro-7H-cyclopenta[h]quinazolin-4-amine], the IC50 against hSOS1 and hKRASG12C fell in the range of 1 to 10 nM; in the experiment with pERK in DLD1 cells, 1 to 200 nM.

The values are drawn from US12435066B2, “Substituted tricyclic compounds” (LUPIN LIMITED, priority 2019, dated 2025).
